These results are taken from ChEMBL document CHEMBL1150120, “New vibsane diterpenes and lupane triterpenes from Viburnum odoratissimum” (2002).

*1 amine or outer side, *2 acyl side, *3 side chain or, on linkers, in order; H or OH if unused. Where a SMILES comes first, the peptide text is derived from it. Bridges are numbered along the chain shown (N, C = ends). Roman numbers before positions name the chains, in order. [ ]: non-standard residue; d: D form. Actinocin(1to9) = Cc1c2oc3c(C)ccc(C(=O)[*:2])c3nc-2c(C(=O)[*:1])c(N)c1=O; NMeV = CN[C@H](C(=O)O)C(C)C; Sar = CNCC(=O)O Where only a bound is given, the exact number is not on record here.

Test [1] has as its system NUGC. Briefly: Cytotoxicity against human NUGC cells assessed as cell growth at 5 uM after 3 to 24 hrs by MTS assay. The format is functional. The settings on record: read-out: Activity. Background: Tetrazolium assays rely on reduction of a dye to a coloured formazan, in cell work by metabolically active cells.
Test [2] has as its system NUGC. Description: Cytotoxicity against human NUGC cells assessed as cell growth at 10 uM after 3 to 24 hrs by MTS assay. Format: functional. The settings on record: read-out: Activity.

Turning to `Cc1c2oc3c(C)ccc(C(=O)N[C@@H]4C(=O)N[C@H](C(C)C)C(=O)N5CCC[C@H]5C(=O)N(C)CC(=O)N(C)[C@@H](C(C)C)C(=O)O[C@@H]4C)c3nc-2c(C(=O)N[C@@H]2C(=O)N[C@H](C(C)C)C(=O)N3CCC[C@H]3C(=O)N(C)CC(=O)N(C)[C@@H](C(C)C)C(=O)O[C@@H]2C)c(N)c1=O` [DACTINOMYCIN] (I: T[dV]P[Sar][NMeV] / II: T[dV]P[Sar][NMeV]; ester I:1-I:C, II:1-II:C; linker I:N-II:N via Actinocin(1to9)), in the test with NUGC [1], the growth at 5 µM worked out at 0%.

For `C=C(C)[C@@H]1CC[C@]2(C(=O)O)CC[C@]3(C(=O)O)[C@H](CC[C@@H]4[C@@]5(C)CCC(=O)C(C)(C)[C@@H]5[C@@H](O)C[C@]43C)[C@@H]12`, the growth at 10 µM in the test on NUGC [2] was over 50%.

In the case of `CC(C)=CC(=O)O[C@@H]1/C=C/[C@@](C)(C/C=C/C(C)(C)O)C/C=C(/CO)C(=O)/C=C/[C@@]1(C)O` [VABSANOL A], in the test with NUGC [2], the growth at 10 µM is 15%.

`C=C(C)C(O)CC[C@]1(C)/C=C/[C@@H](OC(=O)C=C(C)C)[C@](C)(O)/C=C/C(=O)/C(CO)=C\C1` (stereo not given in full) [VIBSANOL B]: the growth at 10 µM in the test with NUGC [2] is over 50%.

On to `C=C(C)[C@@H]1CC[C@]2(C(=O)O)CC[C@]3(C(=O)O)[C@H](CC[C@@H]4[C@@]5(C)CCC(=O)C(C)(C)[C@@H]5[C@H](O)C[C@]43C)[C@@H]12`, for which, in the test with NUGC [2], the growth at 10 µM is 20%.
